Reference: patent US6962713B2, “Spot-on formulations for combating parasites” (Merial, priority 1919, dated 2005)
Values joined by “and” are separate entries in the source; they are usually repeats but may differ in a detail not shown here. Equal values may be shown once.

Tests used:
[1] = Plasma kinetics of ivermectin after subcutaneous injection of Ivomec to dogs; type: in vivo, dog; conditions: for Plasma concentrations of ivermectin / Plasma concentrations of ivermectin, Mean: Ivomec subcutaneous 400 μg.kg^−1, dogs
Procedure: This study was conducted in order to assess the pharmacokinetics of ivemectin in the dog after subcutaneous administration of Ivomec® at a dose of 400 μg.kg^−1 of ivermectin which is known to be effective on gastrointestinal nematodes and to have a route of reference for further development.
Five male Beagle dogs were injected a subcutaneous dose of 400 μg.kg^−1 of ivermectin. Blood samples were collected at intervals up to 56 days post-dosing. The determination of ivermectin in dog plasma was carried out by HPLC, using fluorescence detection after derivatization. The limit of quantification was 100 pg.ml^−1.

[2] = system: gastrointestinal nematodes; conditions: Ivomec subcutaneous, 400 μg.kg^−1 of ivermectin, dog; known; cited from earlier work
[3] = Plasma kinetics of ivermectin after oral administration of Cardomec to dogs; type: in vivo, dog
Procedure: Five male Beagle dogs received a dose of approximately 6 μg.kg^−1 of ivermectin, i.e., one 68 μg Cardomec® tablet per dog. The animals were fasted prior to administration and up to 6 hours after treatment to prevent a possible interaction with food.
Blood samples were collected at intervals up to 28 days post-dosing. The determination of ivermectin in dog plasma was carried out by HPLC using fluorescence detection after derivatization. The limit of quantification was 100 pg.ml^−1.

[4] = Plasma kinetics of ivermectin after topical (spot-on) application 250 μg.kg in combination with fipronil to dogs; type: in vivo, dog; conditions: spot-on 0.25% ivermectin + 10% fipronil, 5 dogs
Procedure: This study was undertaken in order to assess the pharmacokinetic behaviour of ivermectin and fipronil after a topical (spot-on) application of ivermectin in combination with fipronil to the dog.
Five male Beagle dogs were applied a spot-on formulation combining ivermectin and fipronil at a dose of 0.1 ml.kg^−1, i.e. 250 μg.kg and 10 mg.kg^−1 of ivermectin and fipronil, respectively. Blood samples were collected at intervals up to 28 days post-treatment. The determination of ivermectin in dog plasma was carried out by HPLC, using fluorescence detection, with a limit of quantification of 100 pg.ml^−1. The determination of fipronil and its sulfone metabolite (RM1602) was carried out by HPLC with UV detection with a limit of quantification of 20 ng.ml^−1 for fipronil and RM1602.
The formulation tested was as follows: […]

[5] = Ivomec subcutaneous, dose 400 pg.kg^−1 [sic], individual dogs
[6] = Cardomec oral 6 μg.kg^−1, 5 fasted dogs, mean
[7] = Cardomec oral 6 μg.kg^−1, 5 fasted dogs, range over dogs
[8] = Cardomec oral 6 μg.kg^−1, fasted dogs, individual dogs

ivermectin
Plasma concentrations of ivermectin ([1]; D 28, individual dogs): BLQ (The limit of quantification was 100 pg.ml^−1) (2×) and 190 pg.ml^−1 and 108 pg.ml^−1 and 119 pg.ml^−1
Plasma concentrations of ivermectin, Mean ([1]; D 28, mean of 5 dogs (BLQ taken as 0)): BLQ (The limit of quantification was 100 pg.ml^−1)
Plasma concentrations of ivermectin ([1]; D 35, individual dogs): BLQ (The limit of quantification was 100 pg.ml^−1)
Plasma concentrations of ivermectin, Mean ([1]; D 35, mean of 5 dogs): BLQ (The limit of quantification was 100 pg.ml^−1)
tmax ([1]; Ivomec subcutaneous, 400 μg.kg^−1, individual dogs): 2 d (2×) and 4 d (2×) and 3 d
AUC(0-t) [1, 5]: 161141 pg·days/mL and 224572 pg·days/mL and 291636 pg·days/mL and 225830 pg·days/mL and 231319 pg·days/mL
AUC(0-∞) [1, 5]: 161690 pg·days/mL and 225452 pg·days/mL and 294236 pg·days/mL and 226283 pg·days/mL and 231824 pg·days/mL
Cmax [1, 5]: 26.256 ng/mL and 24.875 ng/mL and 41.257 ng/mL and 27.2 ng/mL and 25.089 ng/mL
t½ [1, 5]: 56.4 h and 77 h and 69.1 h and 69.8 h and 70.6 h
effective on gastrointestinal nematodes [2]: effective
AUC(0-t), Mean [3, 6]: 1534 pg·days/mL
AUC(0-∞), Mean [3, 6]: 1859 pg·days/mL
AUC, mean [3, 6]: 44.604 ng·h/mL
Cmax, Mean [3, 6]: 1.362 ng/mL
AUC(0-t), Range [3, 7]: [187-3246] pg.d.ml^−1
AUC(0-∞), Range [3, 7]: [382-3789] pg.d.ml^−1
Plasma concentrations of ivermectin, Mean ([3]; Cardomec oral 6 μg.kg^−1, fasted dogs, 0 h, mean of 5 dogs): BLQ (Below the Limit of Quantification (100 pg.ml^−1))
Plasma concentrations of ivermectin, Mean ([3]; Cardomec oral 6 μg.kg^−1, fasted dogs, 0.75 h, mean of 5 dogs (BLQ taken as 0)): 0.119 ng/mL
Plasma concentrations of ivermectin, Mean ([3]; Cardomec oral 6 μg.kg^−1, fasted dogs, 1.5 h, mean of 5 dogs (BLQ taken as 0)): 0.536 ng/mL
Plasma concentrations of ivermectin ([3]; Cardomec oral 6 μg.kg^−1, fasted dogs, 2 h, individual dogs): 1132 pg.ml^−1 and 674 pg.ml^−1 and BLQ (Below the Limit of Quantification (100 pg.ml^−1)) and 1817 pg.ml^−1 and 264 pg.ml^−1
Plasma concentrations of ivermectin, Mean ([3]; Cardomec oral 6 μg.kg^−1, fasted dogs, 2 h, mean of 5 dogs (BLQ taken as 0)): 0.777 ng/mL
Plasma concentrations of ivermectin, Mean ([3]; Cardomec oral 6 μg.kg^−1, fasted dogs, 3 h, mean of 5 dogs): 1.199 ng/mL
Plasma concentrations of ivermectin, Mean ([3]; Cardomec oral 6 μg.kg^−1, fasted dogs, 4 h, mean of 5 dogs): 1.098 ng/mL
Plasma concentrations of ivermectin, Mean ([3]; Cardomec oral 6 μg.kg^−1, fasted dogs, 6 h, mean of 5 dogs): 0.956 ng/mL
Plasma concentrations of ivermectin, Mean ([3]; Cardomec oral 6 μg.kg^−1, fasted dogs, 8 h, mean of 5 dogs): 0.769 ng/mL
Plasma concentrations of ivermectin, Mean ([3]; Cardomec oral 6 μg.kg^−1, fasted dogs, 10 h, mean of 5 dogs): 0.798 ng/mL
Plasma concentrations of ivermectin, Mean ([3]; Cardomec oral 6 μg.kg^−1, fasted dogs, 12 h, mean of 5 dogs): 0.783 ng/mL
Plasma concentrations of ivermectin, Mean ([3]; Cardomec oral 6 μg.kg^−1, fasted dogs, 24 h, mean of 5 dogs): 0.525 ng/mL
Plasma concentrations of ivermectin, Mean ([3]; Cardomec oral 6 μg.kg^−1, fasted dogs, 32 h, mean of 5 dogs (BLQ taken as 0)): 0.338 ng/mL
Plasma concentrations of ivermectin, Mean ([3]; Cardomec oral 6 μg.kg^−1, fasted dogs, D 2, mean of 5 dogs (ND included as BLQ = 0)): 0.268 ng/mL
Plasma concentrations of ivermectin, Mean ([3]; Cardomec oral 6 μg.kg^−1, fasted dogs, D 3, mean of 5 dogs (ND included as BLQ = 0)): 0.173 ng/mL
Plasma concentrations of ivermectin, Mean ([3]; Cardomec oral 6 μg.kg^−1, fasted dogs, D 4, mean of 5 dogs (ND, BLQ taken as 0)): 0.108 ng/mL
Plasma concentrations of ivermectin, Mean ([3]; Cardomec oral 6 μg.kg^−1, fasted dogs, D 5, mean of 5 dogs, one value above the limit of quantification): BLQ* (Below the Limit of Quantification (100 pg.ml^−1))
Plasma concentrations of ivermectin, Mean ([3]; Cardomec oral 6 μg.kg^−1, fasted dogs, D 7, mean of 5 dogs, one value above the limit of quantification): BLQ* (Below the Limit of Quantification (100 pg.ml^−1))
Plasma concentrations of ivermectin, Mean ([3]; Cardomec oral 6 μg.kg^−1, fasted dogs, D 9, mean of 5 dogs): BLQ (Below the Limit of Quantification (100 pg.ml^−1))
Plasma concentrations of ivermectin, Mean ([3]; Cardomec oral 6 μg.kg^−1, fasted dogs, D 14, mean of 5 dogs): BLQ (Below the Limit of Quantification (100 pg.ml^−1))
Plasma concentrations of ivermectin, Mean ([3]; Cardomec oral 6 μg.kg^−1, fasted dogs, D 21, mean of 5 dogs): BLQ (Below the Limit of Quantification (100 pg.ml^−1))
AUC(0-t) [3, 8]: 3246 pg·days/mL and 1545 pg·days/mL and 743 pg·days/mL and 1949 pg·days/mL and 187 pg·days/mL
AUC(0-∞) [3, 8]: 3789 pg·days/mL and 1813 pg·days/mL and 1027 pg·days/mL and 2282 pg·days/mL and 382 pg·days/mL
Cmax [3, 8]: 2.964 ng/mL and 0.911 ng/mL and 0.557 ng/mL and 1.955 ng/mL and 0.422 ng/mL
tmax [3, 8]: 3 h (2×) and 12 h (2×) and 4 h
t½ [3, 8]: 64.5 h and 33.5 h and 37.5 h and 39.2 h and 26.0 h and 64.6 h and 33.6 h and 37.4 h and 39.1 h and 25.9 h
t½, Mean ([4]; 250 μg.kg ivermectin, harmonic mean): 132 h
AUC(0-t), Mean ([4]; 250 μg.kg ivermectin, mean): 19218 pg·days/mL
AUC(0-∞), Mean ([4]; 250 μg.kg ivermectin, mean): 22842 pg·days/mL
Tlast, Mean ([4]; 250 μg.kg ivermectin, mean): 21 days
tmax, Mean ([4]; 250 μg.kg ivermectin, mean): 110 h
Cmax, Mean ([4]; 0.1 ml.kg^−1 (250 μg.kg ivermectin), mean): 1.618 ng/mL
